31 molecules from patent publication US20160362408A1 (Bayer Pharma Aktiengesellschaft, priority 2013, published 2016) can be followed below.

Structures can show the parent of a compound that is named as a salt.

For this assay, the target named is T1, recombinant guanylate cyclase reporter cell line (Rattus norvegicus, UniProt P19686+P20595).
T1 construct: expressed in transfected cells
T1 sequence (P19686 1-690): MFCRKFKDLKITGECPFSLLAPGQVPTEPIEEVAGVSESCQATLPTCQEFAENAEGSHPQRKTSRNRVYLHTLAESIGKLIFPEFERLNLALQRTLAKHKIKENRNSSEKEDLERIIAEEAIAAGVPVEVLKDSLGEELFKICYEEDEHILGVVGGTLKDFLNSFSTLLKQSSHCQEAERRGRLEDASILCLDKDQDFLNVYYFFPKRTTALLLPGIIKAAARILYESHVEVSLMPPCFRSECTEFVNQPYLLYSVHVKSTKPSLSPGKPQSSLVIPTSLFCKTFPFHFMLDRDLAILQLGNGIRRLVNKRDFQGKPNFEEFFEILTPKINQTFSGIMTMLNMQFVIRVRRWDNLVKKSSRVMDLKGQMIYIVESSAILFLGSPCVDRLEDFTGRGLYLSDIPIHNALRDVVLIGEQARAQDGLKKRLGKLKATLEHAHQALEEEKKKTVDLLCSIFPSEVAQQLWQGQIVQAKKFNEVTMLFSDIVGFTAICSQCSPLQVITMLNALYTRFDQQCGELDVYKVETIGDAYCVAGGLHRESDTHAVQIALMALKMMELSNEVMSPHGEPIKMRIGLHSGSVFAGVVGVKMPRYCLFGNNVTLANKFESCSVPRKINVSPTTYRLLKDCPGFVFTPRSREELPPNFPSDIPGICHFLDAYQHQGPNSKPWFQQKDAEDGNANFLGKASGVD
T1 sequence (P20595 1-619): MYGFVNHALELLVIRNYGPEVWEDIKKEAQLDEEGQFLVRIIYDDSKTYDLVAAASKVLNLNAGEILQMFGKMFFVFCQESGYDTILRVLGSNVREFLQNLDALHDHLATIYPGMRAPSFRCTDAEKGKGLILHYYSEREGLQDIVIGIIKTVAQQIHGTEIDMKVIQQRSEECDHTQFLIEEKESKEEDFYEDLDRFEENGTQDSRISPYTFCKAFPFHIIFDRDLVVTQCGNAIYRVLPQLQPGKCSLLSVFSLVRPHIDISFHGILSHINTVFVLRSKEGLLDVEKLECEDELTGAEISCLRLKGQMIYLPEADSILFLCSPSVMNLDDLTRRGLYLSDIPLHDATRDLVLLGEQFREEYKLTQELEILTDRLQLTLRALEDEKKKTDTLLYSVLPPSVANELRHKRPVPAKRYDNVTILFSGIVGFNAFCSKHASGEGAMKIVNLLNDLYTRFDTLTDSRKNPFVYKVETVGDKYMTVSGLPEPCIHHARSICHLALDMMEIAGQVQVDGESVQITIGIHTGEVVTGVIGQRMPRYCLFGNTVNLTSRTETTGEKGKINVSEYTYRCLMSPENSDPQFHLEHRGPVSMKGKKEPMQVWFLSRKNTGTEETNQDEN
Description: Effect on a recombinant guanylate cyclase reporter cell line. The class given is cell-based. The following applies: MEC = minimum effective concentration; in some cases mean values for individual determinations. A digest of the protocol: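 Compounds tested in a recombinant guanylate cyclase reporter cell line per a published method. Potency expressed as minimum effective concentration (MEC), sometimes as mean of individual determinations.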

For `Cc1cc(OCc2c(F)cccc2F)c2nc(C)c(C(=O)Nc3ccnc4ccc(F)cc34)n2c1` [Example 91, 8-[(2,6-Difluorobenzyl)oxy]-N-(6-fluoroquinolin-4-yl)-2,6-dimethylimidazo[1,2-a]pyridine-3-carboxamide], the MEC came out at 0.01 µM.
In the case of `Cc1nc2c(OCc3c(F)cccc3F)cc(Cl)cn2c1C(=O)Nc1ccnc2ccc(F)cc12` [Example 92] it was 0.1 µM.
Turning to `Cc1ccncc1NC(=O)c1c(C)nc2c(OCc3c(F)cccc3F)cccn12` [Example 93], the MEC came out at 1.0 µM.
As for `Cc1cc(OCc2c(F)cccc2F)c2nc(C)c(C(=O)Nc3c(C(F)(F)F)n[nH]c3C)n2c1` [Example 94], the MEC is 0.1 µM.
Take `Cc1nc2c(OCc3c(F)cccc3F)cccn2c1C(=O)Nc1cccnc1` [Example 95]: the MEC was 0.3 µM.
In the case of `Cc1nc2c(OCc3c(F)cccc3F)cccn2c1C(=O)Nc1ccc(N2CCN(C)CC2)cc1` [Example 96] it was 3.0 µM.
In the case of `Cc1nc2c(OCc3c(F)cccc3F)cccn2c1C(=O)Nc1ccc(N2CCN(C)CC2)c(C(F)(F)F)c1` [Example 97] it was 1.0 µM; in that of `Cc1nc2c(OCc3c(F)cccc3F)cccn2c1C(=O)Nc1ccc(NCCO)cc1` [Example 98], 1.0 µM.
Turning to `Cc1nc2c(OCc3c(F)cccc3F)cccn2c1C(=O)Nc1cccc(N2CCN(C)CC2)c1` [Example 99], the MEC came to 3.0 µM.
To `Cc1nc2c(OCc3c(F)cccc3F)cccn2c1C(=O)Nc1ccnc2cc(C(F)(F)F)ccc12` [Example 100] belongs 1.65 µM.
To `Cc1cc(NC(=O)c2c(C)nc3c(OCc4c(F)cccc4F)cccn23)cc(C)n1` [Example 101] belongs 1.0 µM.
In the case of `CCOc1cc(NC(=O)c2c(C)nc3c(OCc4c(F)cccc4F)cccn23)cc(C)n1` [Example 102] it was 0.3 µM.
As to `Cc1nc2c(OCc3c(F)cccc3F)cccn2c1C(=O)Nc1nn(C)c2ccc(C(F)(F)F)cc12` [Example 103, 8-[(2,6-Difluorobenzyl)oxy]-2-methyl-N-[1-methyl-5-(trifluoromethyl)-1H-indazol-3-yl]imidazo[1,2-a]pyridine-3-carboxamide], the MEC came to 1.0 µM.
To `Cc1nc2c(OCc3c(F)cccc3F)cc(Cl)cn2c1C(=O)Nc1ccccc1CN` [Example 104, N-[2-(Aminomethyl)phenyl]-6-chloro-8-[(2,6-difluorobenzyl)oxy]-2-methylimidazo[1,2-a]pyridine-3-carboxamide] belongs 3.0 µM; to `Cc1nc2c(OCc3c(F)cccc3F)cccn2c1C(=O)Nc1ccc(N2CCNCC2)c(F)c1` [Example 106, 8-[(2,6-difluorobenzyl)oxy]-N-[3-fluoro-4-(piperazin-1-yl)phenyl]-2-methylimidazo[1,2-a]pyridine-3-carboxamide], 1.0 µM.
In the case of `Cc1nc2c(OCc3c(F)cccc3F)cccn2c1C(=O)Nc1ccc(N2CCNCC2)c(C(F)(F)F)c1` [Example 107, 8-[(2,6-difluorobenzyl)oxy]-2-methyl-N-[4-(piperazin-1-yl)-3-(trifluoromethyl)phenyl]imidazo[1,2-a]pyridine-3-carboxamide] it was 1.0 µM; in that of `Cc1cc(N2CCNCC2)ccc1NC(=O)c1c(C)nc2c(OCc3c(F)cccc3F)cc(Cl)cn12` [Example 108, 6-chloro-8-[(2,6-difluorobenzyl)oxy]-2-methyl-N-[2-methyl-4-(piperazin-1-yl)phenyl]imidazo[1,2-a]pyridine-3-carboxamide], 1.0 µM.
To `Cc1nc2c(OCc3c(F)cccc3F)cc(Cl)cn2c1C(=O)Nc1ccc(N2CCNCC2)c(F)c1` [Example 109, 6-chloro-8-[(2,6-difluorobenzyl)oxy]-N-[3-fluoro-4-(piperazin-1-yl)phenyl]-2-methylimidazo[1,2-a]pyridine-3-carboxamide] belongs 3.0 µM; to `Cc1nc2c(OCc3c(F)cccc3F)cccn2c1C(=O)Nc1ccccc1CN` [Example 111, N-[2-(Aminomethyl)phenyl]-8-[(2,6-difluorobenzyl)oxy]-2-methylimidazo[1,2-a]pyridine-3-carboxamide], 1.0 µM; to `Cc1cc(OCc2c(F)cccc2F)c2nc(C)c(C(=O)Nc3ccccc3CN)n2c1` [Example 112, N-[2-(Aminomethyl)phenyl]-8-[(2,6-difluorobenzyl)oxy]-2,6-dimethylimidazo[1,2-a]pyridine-3-carboxamide], 0.3 µM.
Turning to `Cc1cc(OCc2c(F)cccc2F)c2nc(C)c(C(=O)Nc3ccc(F)cc3CN)n2c1` [Example 113, N-[2-(Aminomethyl)-4-fluorophenyl]-8-[(2,6-difluorobenzyl)oxy]-2,6-dimethylimidazo[1,2-a]pyridine-3-carboxamide], the MEC was determined as 0.3 µM.
In the case of `Cc1nc2c(OCc3c(F)cccc3F)cccn2c1C(=O)Nc1n[nH]c2ccc(C(F)(F)F)cc12` [Example 114, 8-[(2,6-Difluorobenzyl)oxy]-2-methyl-N-[5-(trifluoromethyl)-1H-indazol-3-yl]imidazo[1,2-a]pyridine-3-carboxamide] it was 0.3 µM.
To `Cc1nc2c(OCc3c(F)cccc3F)cccn2c1C(=O)Nc1n[nH]c2ccc(F)cc12` [Example 115, 8-[(2,6-Difluorobenzyl)oxy]-N-(5-fluoro-1H-indazol-3-yl)-2-methylimidazo[1,2-a]pyridine-3-carboxamide] belongs 1.0 µM; to `Cc1nc2c(OCc3c(F)cccc3F)cccn2c1C(=O)Nc1c(C(F)(F)F)nn(CCO)c1C` [Example 116, 8-[(2,6-Difluorobenzyl)oxy]-N-[1-(2-hydroxyethyl)-5-methyl-3-(trifluoromethyl)-1H-pyrazol-4-yl]-2-methylimidazo[1,2-a]pyridine-3-carboxamide], 0.5 µM; to `Cc1nc2c(OCc3c(F)cccc3F)cc(Cl)cn2c1C(=O)Nc1c(C(F)(F)F)nn(CCO)c1C` [Example 117, 6-chloro-8-[(2,6-difluorobenzyl)oxy]-N-[1-(2-hydroxyethyl)-5-methyl-3-(trifluoromethyl)-1H-pyrazol-4-yl]-2-methylimidazo[1,2-a]pyridine-3-carboxamide], 0.1 µM.
In the case of `Cc1nc2c(OCc3c(F)cccc3F)cccn2c1C(=O)Nc1cnn(C)c1` [Example 119, 8-[(2,6-difluorobenzyl)oxy]-2-methyl-N-(1-methyl-1H-pyrazol-4-yl)imidazo[1,2-a]pyridine-3-carboxamide] it was 1.0 µM; in that of `CCn1ccc(NC(=O)c2c(C)nc3c(OCc4c(F)cccc4F)cccn23)n1` [Example 121, 8-[(2,6-difluorobenzyl)oxy]-N-(1-ethyl-1H-pyrazol-3-yl)-2-methylimidazo[1,2-a] pyridine-3-carboxamide], 1.0 µM; in that of `Cc1nc2c(OCc3c(F)cccc3F)cccn2c1C(=O)Nc1cc(C)n(C)n1` [Example 122, 8-[(2,6-difluorobenzyl)oxy]-N-(1,5-dimethyl-1H-pyrazol-3-yl)-2-methylimidazo[1,2-a] pyridine-3-carboxamide], 3.0 µM.
On to `Cc1nc2c(OCc3c(F)cccc3F)cccn2c1C(=O)Nc1ccncc1C(F)(F)F` [Example 123, 8-[(2,6-difluorobenzyl)oxy]-2-methyl-N-[3-(trifluoromethyl)pyridin-4-yl)imidazo[1,2-a]pyridine-3-carboxamide trifluoroacetate], for which the MEC turned out to be 1.0 µM.
For the molecule `Cc1nc2c(OCC3CCCCC3)cccn2c1C(=O)Nc1cnn(CCO)c1` [Example 124, 8-(cyclohexylmethoxy)-N-[1-(2-hydroxyethyl)-1H-pyrazol-4-yl]-2-methylimidazo[1,2-a]pyridine-3-carboxamide], the MEC was determined as 1.0 µM.
To `Cc1ccnc(NC(=O)c2c(C)nc3c(OCc4c(F)cccc4F)cccn23)n1` [Example 126, 8-[(2,6-Difluorobenzyl)oxy]-2-methyl-N-(4-methylpyrimidin-2-yl)imidazo[1,2-a]pyridine-3-carboxamide] belongs 1.0 µM.
